Source: US20230338395A1, “PROPHYLAXIS AND TREATMENT OF CORONAVIRUS INFECTION” (priority 2020, published 2023)

What was measured:
SARS-CoV-2 = experiment: Pulmonary inflammation after SARS-CoV-2 challenge in MRL-Fas lpr mice; assay type: in vivo; conditions: 40 mg/kg/day intraperitoneal from around day 15 after viral clearance, lungs inspected at day 40 post infection
tlr7 gene expression = conditions: SLE-patients; cited from earlier work
COVID-19 = conditions: severely ill COVID-19 patients; cited from earlier work
classical swine fever = test system: classical swine fever; design: species or system pigs; conditions: pig, in vivo, 0.1 mg/kg
[1] = test system: lethal respiratory virus infections; conditions: aged mice, intranasal treatment; cited from earlier work
SARS-CoV-1 = test system: SARS-CoV-1; design: species or system mice; conditions: mouse, in vivo

Compound: CCN(CCO)CCCC(C)Nc1ccnc2cc(Cl)ccc12 (stereo not shown) [hydroxychloroquine]
- severity of pulmonary inflammation (score 0-4) (SARS-CoV-2): improved

Compound: C=C1CC[C@H](O)C/C1=C/C=C1\CCC[C@]2(C)[C@@H]([C@H](C)CCCC(C)C)CC[C@@H]12 [vitamin D3]
- tlr7 gene expression (tlr7 gene expression): down-regulating tlr7 gene expression
- protection from thrombosis and embolism (COVID-19): protect severely ill COVID-19 patients from thrombosis and embolism

Compound: Polyinosinic:polycytidylic acid [poly(IC)]
- infection fatality rate (classical swine fever): lower than the infection fatality rate of the untreated subpopulation
- protection from lethal respiratory virus infections [1]: protects aged mice from lethal respiratory virus infections
- protection compared with the other tlr agonists (SARS-CoV-1): most protective
- survival (SARS-CoV-1): increase survival
